18 compounds from patent US10144742B2 (Millennium Pharmaceuticals, Inc., priority 2014, dated 2018) can be followed below.

The target of assay [1] is hNAMPT protein (Homo sapiens (Human), UniProt P43490). The assay can be described thus: NAMPT enzyme assay (TR-FRET/HTRF, BodiPY ligand, anti 6His-Tb). The assay is classed as binding. To be noted: for inhibition at 1 µM: NAMPT inhibition at compound concentration 1 μM; for IC50: NAMPT inhibition, IC50 range class, read-out: IC50. In a few lines:
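TR-FRET binding assay in which His-tagged human NAMPT with anti-6His-Tb is displaced by compound from a BodiPY ligand, incubated 1 h at rt in the dark. Excitation was at 320 nm, with the 520/486 nm emission ratio read. IC50 was fitted from inhibition relative to DMSO controls.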

For assay [2], the system named is PC3 cells. Kind of assay: PC3 growth inhibition (Cell-titer glo, 72 hours). The assay is classed as cell-based. The note with it: Homo sapiens, PC-3; compound concentration 1.667 μM; PC3 cells, 72 hours, Cell-titer glo; read-out: Percent Inhibition (PC3 growth inhibition). In a few lines:
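PC3 cells in RPMI1640 seeded overnight at 37 °C, 5% CO2, then exposed to compound diluted in AIM serum-free medium for 72 h. Viability by CellTiter-Glo luminescence vs DMSO controls; single-concentration % remaining viability (1 μM or 1.667 μM), or GI50/LD50 from curves.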

Chain of hNAMPT protein (P43490 whole entry): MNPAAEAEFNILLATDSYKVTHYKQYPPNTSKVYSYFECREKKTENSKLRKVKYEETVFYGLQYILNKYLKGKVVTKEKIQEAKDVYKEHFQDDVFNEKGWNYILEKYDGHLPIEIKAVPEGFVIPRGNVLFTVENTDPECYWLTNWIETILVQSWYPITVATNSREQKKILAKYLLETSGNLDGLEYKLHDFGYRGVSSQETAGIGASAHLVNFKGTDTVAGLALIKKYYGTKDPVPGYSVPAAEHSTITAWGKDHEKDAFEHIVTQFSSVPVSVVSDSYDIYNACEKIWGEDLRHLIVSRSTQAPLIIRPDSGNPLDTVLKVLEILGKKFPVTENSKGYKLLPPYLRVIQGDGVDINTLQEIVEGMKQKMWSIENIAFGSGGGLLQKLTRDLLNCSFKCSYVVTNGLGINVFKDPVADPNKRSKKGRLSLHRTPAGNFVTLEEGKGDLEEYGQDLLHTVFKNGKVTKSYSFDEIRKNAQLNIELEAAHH

In general, inhibition refers to the change of the read-out against control, counted positive when it falls. The IC50 is the concentration that gives 50% inhibition. Consider `O=C(NCCCc1ncc[nH]1)c1ccc2nc(OCC3CCCO3)c(-c3ccc(F)cc3)nc2c1` (stereo not drawn) [Compound I-438, 3-(4-fluorophenyl)-N-[3-(1H-imidazol-2-yl)propyl]-2-(tetrahydrofuran-2-ylmethoxy)quinoxaline-6-carboxamide], for which the inhibition at 1 µM in assay [1] (read-out: Percent Inhibition) turned out to be 99%. Also, in assay [1], the half-inhibitory concentration (IC50) was less than 100 nM. The inhibition at 1.667 µM in assay [2] is 2%.

Consider `O=C(NCCCc1ncc[nH]1)c1ccc2nc(OCc3ccccc3)c(-c3ccc(F)cc3)nc2c1` [Compound I-439, 2-(benzyloxy)-3-(4-fluorophenyl)-N-[3-(1H-imidazol-2-yl)propyl]quinoxaline-6-carboxamide], for which the inhibition at 1 µM in assay [1] (read-out: Percent Inhibition) amounted to 93%. Besides, in assay [1], the half-maximal inhibitory concentration (IC50) was less than 100 nM. In assay [2], the inhibition at 1.667 µM was 3%.

As for `CCOc1nc2ccc(C(=O)NCCCc3ncc[nH]3)cc2nc1-c1ccc(F)cc1` [Compound I-440, 2-ethoxy-3-(4-fluorophenyl)-N-[3-(1H-imidazol-2-yl)propyl]quinoxaline-6-carboxamide], the inhibition at 1 µM in assay [1] (read-out: Percent Inhibition) came to 94%. Besides, the IC50 in assay [1] is less than 100 nM. Besides, in assay [2], the inhibition at 1.667 µM amounted to 3%.

In the case of `O=C(NCCCc1cnccn1)c1ccc2nc(N3CCCCC3)c(-c3ccc(F)cc3)nc2c1` [Compound I-441, 3-(4-fluorophenyl)-2-(piperidin-1-yl)-N-[3-(pyrazin-2-yl)propyl]quinoxaline-6-carboxamide], the inhibition at 1 µM in assay [1] (read-out: Percent Inhibition) is 50%. Besides, the IC50 in assay [1] was in the range of 500 to 1000 nM. In addition, in assay [2], the inhibition at 1.667 µM is more than 99%.

As to `O=C(NCCCc1ncc[nH]1)c1ccc2nc(OCCc3cn[nH]c3)c(-c3ccc(F)cc3)nc2c1` [Compound I-442, 3-(4-fluorophenyl)-N-[3-(1H-imidazol-2-yl)propyl]-2-[2-(1H-pyrazol-4-yl)ethoxy]quinoxaline-6-carboxamide], in assay [1] (read-out: Percent Inhibition), the inhibition at 1 µM is more than 99%. Also, the half-maximal inhibitory concentration (IC50) in assay [1] was less than 100 nM. Further, the inhibition at 1.667 µM in assay [2] came out at 3%.

For the compound `O=C(NCCc1ncc[nH]1)c1ccc2nc(-c3ccc(F)cc3)c(-c3ccc(Cl)s3)nc2c1` [Compound I-443, N-(2-(1H-imidazol-2-yl)ethyl)-3-(5-chlorothiophen-2-yl)-2-(4-fluorophenyl)quinoxaline-6-carboxamide], the inhibition at 0.333 µM in assay [1] (NAMPT inhibition at compound concentration 0.333 μM (data at 1 uM not available due to solubility limitations), read-out: Percent Inhibition) came to 57%. Besides, the IC50 in assay [1] was 100 to 500 nM. For the same compound, the inhibition at 1.667 µM in assay [2] was 11%.

Regarding `CC(C)c1nc2ccc(C(=O)NCCCc3ncc[nH]3)cc2nc1-c1ccc(F)cc1` [Compound I-444, 3-(4-fluorophenyl)-N-[3-(1H-imidazol-2-yl)propyl]-2-isopropylquinoxaline-6-carboxamide], in assay [1] (read-out: Percent Inhibition), the inhibition at 1 µM worked out at 77%. Besides, the IC50 in assay [1] was 100 to 500 nM. Also, the inhibition at 1.667 µM in assay [2] was found to be 1%.

Turning to `Cc1ccc(C(F)(F)F)cc1-c1nc2cc(C(=O)NCCCc3ncc[nH]3)ccc2nc1-c1ccc(F)cc1` [Compound I-445, 2-(4-fluorophenyl)-N-[3-(1H-imidazol-2-yl)propyl]-3-[2-methyl-5-(trifluoromethyl)phenyl]quinoxaline-6-carboxamide], the inhibition at 1 µM in assay [1] (read-out: Percent Inhibition) is 91%. The half-inhibitory concentration (IC50) in assay [1] is less than 100 nM. The inhibition at 1.667 µM in assay [2] was determined as 2%.

Regarding `Cc1noc(C)c1COc1nc2ccc(C(=O)NCCCc3ncc[nH]3)cc2nc1-c1ccc(F)cc1` [Compound I-446, 2-[(3,5-dimethylisoxazol-4-yl)methoxy]-3-(4-fluorophenyl)-N-[3-(1H-imidazol-2-yl)propyl]quinoxaline-6-carboxamide], the inhibition at 1 µM in assay [1] (read-out: Percent Inhibition) was more than 99%. Moreover, in assay [1], the half-maximal inhibitory concentration (IC50) is less than 100 nM. Besides, the inhibition at 1.667 µM in assay [2] is 2%.

With `CCOc1cccc(-c2nc3cc(C(=O)NCCCc4ncc[nH]4)ccc3nc2-c2ccc(F)cc2)c1` [Compound I-447, 3-(3-ethoxyphenyl)-2-(4-fluorophenyl)-N-[3-(1H-imidazol-2-yl)propyl]quinoxaline-6-carboxamide], the inhibition at 1 µM in assay [1] (read-out: Percent Inhibition) was determined as 99%. Moreover, the IC50 in assay [1] is less than 100 nM. For the same compound, in assay [2], the inhibition at 1.667 µM came out at 2%.

Regarding `COc1ccc(-c2nc3cc(C(=O)NCCCc4ncc[nH]4)ccc3nc2-c2ccc(F)cc2)cc1` [Compound I-448, 2-(4-fluorophenyl)-N-[3-(1H-imidazol-2-yl)propyl]-3-(4-methoxyphenyl)quinoxaline-6-carboxamide], in assay [1] (read-out: Percent Inhibition), the inhibition at 1 µM was 67%. Further, the half-maximal inhibitory concentration (IC50) in assay [1] fell in the range of 100 to 500 nM. In assay [2], the inhibition at 1.667 µM was found to be 2%.

With `O=C(NCCCc1ncc[nH]1)c1ccc2nc(-c3ccc(F)cc3)c(-c3cc(F)c(F)c(F)c3)nc2c1` [Compound I-449, 2-(4-fluorophenyl)-N-[3-(1H-imidazol-2-yl)propyl]-3-(3,4,5-trifluorophenyl)quinoxaline-6-carboxamide], the inhibition at 1 µM in assay [1] (read-out: Percent Inhibition) came out at 82%. In addition, in assay [1], the 50% inhibitory concentration (IC50) lay in the range of 100 to 500 nM. Moreover, the inhibition at 1.667 µM in assay [2] worked out at 3%.

Turning to `Cc1ccc(C)c(-c2nc3cc(C(=O)NCCCc4ncc[nH]4)ccc3nc2-c2ccc(F)cc2)c1` [Compound I-450, 3-(2,5-dimethylphenyl)-2-(4-fluorophenyl)-N-[3-(1H-imidazol-2-yl)propyl]quinoxaline-6-carboxamide], the inhibition at 1 µM in assay [1] (read-out: Percent Inhibition) worked out at 93%. Besides, in assay [1], the 50% inhibitory concentration (IC50) was less than 100 nM. For the same compound, the inhibition at 1.667 µM in assay [2] came to 1%.

For the compound `O=C(NCCCc1ncc[nH]1)c1ccc2nc(-c3ccc(F)cc3)c(-c3cc(C(F)(F)F)ccc3F)nc2c1` [Compound I-451, 2-(4-fluorophenyl)-3-[2-fluoro-5-(trifluoromethyl)phenyl]-N-[3-(1H-imidazol-2-yl)propyl]quinoxaline-6-carboxamide], in assay [1] (read-out: Percent Inhibition), the inhibition at 1 µM worked out at 97%. For the same compound, in assay [1], the IC50 was less than 100 nM. Besides, the inhibition at 1.667 µM in assay [2] turned out to be 2%.

`CC(C)Oc1nc2ccc(C(=O)NCc3ccc4nccn4c3)cc2nc1-c1ccc(F)cc1` [Compound I-452, 3-(4-Fluorophenyl)-N-(imidazo[1,2-a]pyridin-6-ylmethyl)-2-isopropoxyquinoxaline-6-carboxamide]: the inhibition at 1 µM in assay [1] (read-out: Percent Inhibition) turned out to be 75%. Further, the 50% inhibitory concentration (IC50) in assay [1] was in the range of 100 to 500 nM. Also, the inhibition at 1.667 µM in assay [2] stood at 3%.

As for `O=C(NCCCc1ncc[nH]1)c1ccc2nc(-n3cnc4ccccc43)c(-c3ccc(F)cc3)nc2c1` [Compound I-453, 2-(1H-benzimidazol-1-yl)-3-(4-fluorophenyl)-N-[3-(1H-imidazol-2-yl)propyl]quinoxaline-6-carboxamide], in assay [1] (read-out: Percent Inhibition), the inhibition at 1 µM amounted to 88%. The concentration for half-maximal inhibition (IC50) in assay [1] lay in the range of 100 to 500 nM. The inhibition at 1.667 µM in assay [2] stood at 3%.

As for `O=C(NCCCc1ncc[nH]1)c1ccc2nc(OCc3ccccc3Cl)c(-c3ccc(F)cc3)nc2c1` [Compound I-454, 2-[(2-chlorobenzyl)oxy]-3-(4-fluorophenyl)-N-[3-(1H-imidazol-2-yl)propyl]quinoxaline-6-carboxamide], the inhibition at 1 µM in assay [1] (read-out: Percent Inhibition) was found to be 95%. Further, the half-maximal inhibitory concentration (IC50) in assay [1] is less than 100 nM. For the same compound, in assay [2], the inhibition at 1.667 µM turned out to be 2%.

With `O=C(NCCCc1ncc[nH]1)c1ccc2nc(-c3ccc(F)cc3)c(-c3ccc(Cl)cc3F)nc2c1` [Compound I-455, 3-(4-chloro-2-fluorophenyl)-2-(4-fluorophenyl)-N-[3-(1H-imidazol-2-yl)propyl]quinoxaline-6-carboxamide], the inhibition at 1 µM in assay [1] (read-out: Percent Inhibition) stood at 80%. For the same compound, the concentration for half-maximal inhibition (IC50) in assay [1] was in the range of 100 to 500 nM. For the same compound, the inhibition at 1.667 µM in assay [2] was 3%.
